Reference: patent US6495570B2, “Combination drug therapy for glycolipid storage diseases” (G. D. Searle & Co., priority 1999, dated 2002)
Where “and” joins values, the source holds several entries; their conditions need not be identical. Equal values may be shown once.

Legend:
[1] = cited from earlier work
[2] = system: glycolipid biosynthesis in human myeloid (HL-60) cells; experiment: Inhibition of glycolipid biosynthesis in HL-60 cells (radiolabelled palmitic acid, TLC, scanning densitometry); type: cell-based; conditions: for IC50: Homo sapiens, range quoted for variability of the radiolabelled products, read-out: IC50, inhibition of glycolipids (glucosylceramide and lactosylceramide bands)
Method: (§1) Cells were cultured for four days in the presence of radiolabelled palmitic acid and the following concentrations of compound:
(§2) After extraction the radioactively labelled glycolipids were separated by TLC and visualized by radioautography. NB-DNJ is N-butyl-DNJ. NN-DNJ is N-nonyl-DNJ.
(§3) Chinese Hamster Ovary (CHO) cells and human myeloid (HL-60) cells grown in the presence of varying concentrations of inhibitor in addition to a precursor (radiolabelled palmitic acid) of glycolipid biosynthesis were treated with solvents to extract the glycolipids by the procedure described by Platt et al., J. Biol. Chem. 269, 8362-8365 (1994).
(§4) The radiolabelled lipids were separated by TLC (FIG. 1) and bands corresponding to glucosylceramide and lactosylceramide were quantitated by scanning densitometry to estimate the reduction in glycolipid biosynthesis.
(§5) Table 1. […] Radiolabelled glucosylceramide and lactosylceramide bands from FIG. 1 were quantitated by scanning densitometry and the percentage of control (no treatment, track a, FIG. 1) expressed in comparison to compound dose. From the linear curve, an IC50 value was obtained. A range of values is quoted to represent variability of the radiolabelled products.

[3] = mice, oral 4800 mg/Kg/day; cited from earlier work
[4] = Organ distribution of radiolabelled compound after oral gavage in the normal mouse; type: in vivo
Method: Mouse body fluids and organs were collected for different times (30, 60, 90 minutes) after gavage with radiolabelled compound. Radioactivity in each sample was determined and expressed as a percentage of radioactivity recovered. Solid bars, NN-DNJ, hatched bars, NB-DNJ.
Further evidence that longer alkyl chains are taken up-much better than the shorter alkyl chains has been obtained by in vivo studies with mouse.
Table 2. Recovery of radiolabelled compounds after administration in the normal mouse. Mouse body fluids and organs were collected at different times after gavage with radiolabelled compound. Radioactivity in each sample was determined and expressed as a percentage of radioactivity recovered (data from FIG. 5).

glycolipid biosynthesis = conditions: cited from earlier work
[5] = system: glycolipid biosynthesis in Chinese hamster ovary (CHO) cells; experiment: Inhibition of glycolipid biosynthesis in CHO cells (radiolabelled palmitic acid, TLC, scanning densitometry); type: cell-based; conditions: for IC50: Cricetulus griseus, range quoted for variability of the radiolabelled products, read-out: IC50, inhibition of glycolipids (glucosylceramide and lactosylceramide bands)
Method: as §1, §2, §3, §4, §5

[6] = system: human immunodeficiency virus (HIV); conditions: cited from earlier work
Hepatitis B virus (HBV) = conditions: based on inhibition of alpha-glucosidases in the ER; cited from earlier work
[7] = system: CHO, MDBK and HepG2 cells; experiment: Uptake of radiolabelled compound into cultured cells (cell-associated radioactivity); type: in vitro ADME; conditions: incubated up to 24 hours
Method: FIG. 5 is a bar graph of estimated radioactivity. […] Cells were extensively washed and acid precipitated. After solution in NaOH, cell associated radioactivity was determined as a percentage of radiolabelled compound added.
The activity is explained by the differential uptake into cells.

Row | Structure (SMILES) | IC50 ([2]; HL-60 cells) | % recovered, Brain ([4]; 30 min after gavage, mouse) | % recovered, Liver ([4]; 30 min after gavage, mouse) | % recovered, Brain ([4]; 60 min after gavage, mouse) | % recovered, Liver ([4]; 60 min after gavage, mouse) | % recovered, Brain ([4]; 90 min after gavage, mouse) | % recovered, Liver ([4]; 90 min after gavage, mouse) | dose required for activity against glycolipid biosynthesis (glycolipid biosynthesis) | IC50 [5] | further results
1 | CCCCN1C[C@H](O)[C@@H](O)[C@H](O)[C@H]1CO [N-butyl-DNJ, N-butyl-1,5-dideoxy-1,5-imino-D-glucitol] | 1800 to 7300 nM | 0.2% | 8.5% | 0.1% | 2.8% | 0.03% | 0.9% | 0.01 to 0.1 mg/mL | 25000 to 50000 nM | time of treatment to steady-state plasma concentration ([1]; clinical trial): 4-6 weeks; peak plasma concentration ([1]; oral, 100 mg three times daily, listed as ND-DNJ): 6.8 μM and 1.5 μg/ml; stable serum concentration [3]: 50 µM; effectiveness as an inhibitor of HIV versus the N-ethyl analog [6]: three log orders more effective; effectiveness as an inhibitor of HIV versus the N-methyl analog [6]: more than two log orders more effective
2 | CCCCCCCCCCN1C[C@H](O)[C@@H](O)[C@H](O)[C@H]1CO [N-decyl-DNJ] |  |  |  |  |  |  |  |  |  | inhibition at times lower concentrations than N-butyl-DNJ ([2]; HL-60 cell-based assay): 50 times
3 | CCCCCCN1C[C@H](O)[C@@H](O)[C@H](O)[C@H]1CO [N-hexyl derivative of DNJ] |  |  |  |  |  |  |  | 0.2 mg/mL |  | 
4 | CN1C[C@H](O)[C@@H](O)[C@H](O)[C@H]1CO [N-methyl analog] |  |  |  |  |  |  |  |  |  | activity against glycolipid biosynthesis (glycolipid biosynthesis): inactive
5 | CCCCCCCCCN1C[C@H](O)[C@@H](O)[C@H](O)[C@H]1CO [N-nonyl-DNJ, N-nonyl-1,5-dideoxy-1,5-imino-D-glucitol] | 20 to 400 nM | 0.4% | 27.1% | 0.3% | 12.6% | 0.4% | 13.5% |  | 2000 to 2700 nM | inhibition of glycolipid biosynthesis, better than N-butyl-DNJ at equivalent concentrations ([2]; HL-60 cells): about four hundred times better; inhibition of the Hepatitis B virus (HBV) (Hepatitis B virus (HBV)): effective; cell-associated radioactivity, increase versus N-butyl-DNJ [7]: 3.5-5.0 fold; radioactivity recovered in the liver and brain, higher than N-butyl-DNJ ([4]; after 90 min, oral gavage, mouse): 10 fold; uptake into the brain versus N-butyl-DNJ ([4]; tests of organ distribution): five times better; inhibition of glycolipid biosynthesis, better than N-butyl-DNJ at equivalent concentrations [5]: about ten- to about twenty-fold better
